According to patent US11644466B2, “Methods for treating, preventing and predicting risk of developing breast cancer” (Dana-Farber Cancer Institute, Inc., priority 2012, dated 2023):
Entries after “also recorded” stand apart in the source; their conditions may differ.

Test system: normal human breast tissues (breast epithelial cells)
Test: Tissue explant (tissue slice) culture of normal breast tissue with pathway inhibitors, hormones or tamoxifen: frequency of BrdU+, Ki67+ and p27+ cells
Assay type: cell-based
Settings: for number of cells incorporating BrdU: BrdU pulse 5 hrs; for frequency (numbers) of p27+ cells: normal breast tissue explant / tissue slice culture with inhibitor or tamoxifen, 8-10 days, FIG. 24, FIG. 26C
[1] = normal breast tissue explant culture with inhibitor for 8-10 days, versus control, FIG. 24

Experimental: The multicolor immunofluorescence for p27 and Ki67 was performed by incubating the samples with monoclonal antibody anti-p27 (1:100 dilution) and polyclonal antibody anti-Ki67 (1:50 dilution) for one hour at room temperature followed by goat anti-mouse IgG1 Alexa 555-conjugated (Invitrogen, 1:100 dilution, for detection of p27) and goat anti-rabbit Alexa 488-conjugated (Invitrogen, 1:100 dilution, for detection of Ki67) for 30 minutes at room temperature. Multicolor immunofluorescence for pSMAD2 (1:50 dilution), pEGFR (1:50 dilution) and Axin2 (1:20 dilution) were performed by incubation for 2 h at room temperature or overnight at 4° C. followed by secondary antibody Rabbit Alexa 488 conjugated (Invitrogen, 1:100 dilution for pSMAD2 and pEGFR) or mouse IgG1 Alexa-488 conjugated (Invitrogen 1:100 dilution) for Axin2 for 30 minutes at room temperature.
Scoring for the expression of each marker was done as follows: p27 fluorescence intensity was scored in the nuclei of 20 randomly selected cells using the ImageJ 1.43r software; Sox17 and COX2 expression was inferred by the combination of two variables: 1) the percentage cells expressing each marker, and 2) the intensity of each marker transformed into a categorical variable based on 0 no expression, 1 weak expression, 2 moderate expression and 3 high expression; the percentage of p27+, Ki67+ and BrdU+ cells was estimated by counting an average of 1000 cells/sample in the case of the mammary epithelium for premenopausal, postmenopausal and high-low density cases, and an average of 2,000 cells in the case of the tissue slices cultures. % of pSMAD2+ cells was estimated by counting an average of 600 cells/sample. For pEGFR and Axin2 fluorescence intensity measurement, mean fluorescence intensity was measured using Image J 1.43r software by counting an average of 600 cells/sample corrected by area and subtracting the average of background fluorescence intensity. […] For p27 and AR staining, p27 (1:100 dilution and AR (1:30 dilution) antibodies were incubated overnight at 40 C followed by incubation at RT for 1 h with subsequent staining by goat anti-mouse IgG1 Alexa 555-conjugated (Invitrogen, 1:100 dilution, for detection of p27) and anti-rabbit IgG Alexa 488-conjugated (Invitrogen, 1:80 dilution). Percentage of p27+, AR+, ER+ cells was estimated by counting 500-1000 cells/sample. Nuclear staining with DAPI and multiple fluorescence images from each section were acquired with 40× plan apo objective, following procedure described above.
Normal human breast tissues were collected from reduction mammoplasties, transported in ice-cold DMEM-F12 medium, and processed within 24 hrs. For organ cultures, thin (˜1 mm thick) slices of tissue were cut from epithelium-enriched areas and cultured for 8 days in 6-well plates using co-culture inserts to optimize the tissue/medium contact surface and changing medium (2 ml/well) every 24 hrs. […] Following 8 days of culture, labeled tissue slices were pulse with bromo-deoxy-uridine (30 μM final concentration) for 5 hrs before fixing the tissue in buffered formalin at room temperature for 24 hrs followed by embedding in paraffin. Experiments were performed in triplicates using tissue from different regions of the same breast, uncultured tissue and tissue cultured without any drugs as controls.

## COc1cc2ncnc(Nc3cccc(Cl)c3)c2cc1OC [EGFR, tyrphostin AG1478]
[1]
  number of cells incorporating BrdU: significantly (p<0.05) decreased
  fraction of Ki67+ cells: decreased

## CC1=C2C[C@H]3[C@@H](CC=C4C[C@@H](O)CC[C@@]43C)[C@@H]2CC[C@]12O[C@@H]1C[C@H](C)CN[C@H]1[C@H]2C [Hh, cyclopamine]
[1]
  number of cells incorporating BrdU: significantly (p<0.05) decreased

## COc1cc([C@@H]2c3cc4c(cc3[C@H](O)[C@H]3COC(=O)[C@@H]23)OCO4)cc(OC)c1OC [IGFR, picropodophylotoxin]
  frequency (numbers) of p27+ cells: most pronouncedly decreased; also recorded: decreased
[1]
  number of cells incorporating BrdU: significantly (p<0.05) decreased

## c1ccc(-c2nn3c(c2-c2ccnc4cc(OCCN5CCOCC5)ccc24)CCC3)nc1 [TGFBR inhibitor, LY2109761]
  frequency (numbers) of p27+ cells: most pronouncedly decreased; also recorded: decreased
[1]
  number of cells incorporating BrdU: opposite effect

## C[C@]12CC[C@@H]3c4ccc(O)cc4CC[C@H]3[C@@H]1CC[C@@H]2O [estrogen, estradiol]
Tissue slices treated with concentrations of estrogen present in follicular phase (0.5 μM of estradiol for 8 days), FIG. 26B
  numbers of p27+ cells: high

## CC/C(=C(\c1ccccc1)c1ccc(OCCN(C)C)cc1)c1ccccc1 [tamoxifen]
  frequency (numbers) of p27+ cells: high
